Assay results as given in US20100190645A1 (priority 2007, published 2010).

Experiments:
Type in all cases: cell-based
Ustilago avenae = Ustilago avenae test (in vitro)/microtest; settings: single active compound, 4 days incubation, optical density
Method: Ustilago avenae—Test (In Vitro)/Microtest
(§1) The microtest was performed in liquid medium with potato-dextrose broth (PDB) using microtitre plates.
(§2) The active compound is applied as the technical active substance dissolved in methanol.
A spore suspension of Ustilago avenae was used for inoculation. After 4 days of incubation by darkness under shaking (10 Hrz), the optical density in each cavity was evaluated with the aid of a microtitre plate reader.
(§3) 0% means an efficacy which corresponds to that of the control, while an efficacy of 100% means that no fungal growth is observed.

Pyricularia oryzae = settings: single active compound, 0.3 ppm, 4 days incubation, optical density
Phytophthora cryptogea = Phytophthora cryptogea test (in vitro)/microtest; settings: single active compound, 0.3 ppm, 3 days incubation, optical density
Method: Phytophthora cryptogea—Test (In Vitro)/Microtest
as §1, §2
A mycelium suspension of Phytophthora ayptogea was used for inoculation. After 3 days of incubation by darkness under shaking (10 Hrz), the optical density in each cavity was evaluated with the aid of a microtitre plate reader.
as §3

Compound	Efficacy in % (Ustilago avenae; Example B, 0.01 ppm)	Efficacy in % (Pyricularia oryzae)	Efficacy in % (Phytophthora cryptogea)	Efficacy in % (Ustilago avenae; Example D, 0.1 ppm)
Cc1nn(C)c(F)c1C(=O)Nc1ccccc1C(C)CC(C)C (centres unmarked) [BYF 14182]	95%	–	–	–
COc1ccc(-c2coc3cc(O)ccc3c2=O)cc1 [Formononetin]	13%	11%	14%	17%
COCC(=O)N(c1c(C)cccc1C)C(C)C(=O)OC (centres unmarked) [Metalaxyl, metalaxyl]	–	–	48%	–
CC(C)(C)C(O)(CCc1ccc(Cl)cc1)Cn1cncn1 (centres unmarked) [Tebuconazole, tebuconazole]	–	–	–	96%
CO/N=C(/C(=O)OC)c1ccccc1CO/N=C(\C)c1cccc(C(F)(F)F)c1 [Trifloxystrobin, trifloxystrobin]	–	56%	–	–
